Ends that are not written are not given here.
What was measured:
Caco-2 cell monolayer = assay: Caco-2 monolayer transport (apparent permeability), normal and IL-1β-induced inflammation model; assay type: in vitro ADME, human; conditions: integrity check
Description: (§1) Caco-2 cells (a human colon adenocarcinoma cell line) were preserved in our lab and cultured in DMEM supplemented with 12% (v/v) FBS (FND500, ExCell Bio, Shanghai, China), 1% (v/v) L-glutamine, 1% (v/v) streptomycin–penicillin, and 1% (v/v) nonessential amino acids at 37 °C and 5% CO2. Caco-2 cells were seeded in 12-well Transwell plates at a density of 2 × 10^5 cells per well. On the 10th to 21st days, the transepithelial electrical resistance (TEER) of each well was detected using a Millicell ERS-2 V-ohm meter (Millipore, Boston, MA, USA). […] The protein profile of cow’s milk after simulated digestion was detected by (A) Tricine-SDS-PAGE. Lane 1: unstained low range protein ladder. Lane 2: pepsin. Lane 3: the cow’s milk. Lane 4: cow’s milk digested in the simulated adult gastrointestinal fluid for 0 min. Lane 5: cow’s milk digested in the simulated adult gastric fluid for 60 min. Lane 6: cow’s milk digested in the simulated adult gastrointestinal fluid for 60 min. Lane 7: cow’s milk digested in the simulated infant gastrointestinal fluid for 0 min. Lane 8: cow’s milk digested in the simulated infant gastric fluid for 60 min. Lane 9: cow’s milk digested in the infant simulated gastrointestinal fluid for 60 min. […] Y-axis value represents the occurrence numbers of amino acids of BLG peptides. (C) The whole amino acid sequence of BLG used in our study; the red letters indicate the areas where unique peptides are present after the simulated digestion of the infants, while the green letters represent unique peptides in the adults’ digestion. (D) The Papp of BLG peptides across Caco-;2 monolayers at 30 min, 1 h, 2 h, 3 h, and 4 h in the normal model and IL-1β-induced inflammation model, respectively. The data were calculated in three replicates. BLG, beta-lactoglobulin. Papp, apparent permeability coefficients.

[1] = as above; assay type: in vitro ADME, human; conditions: human; Caco-2 monolayer, 12-well Transwell, 21 days, TEER > 400 Ω × cm^2, from AP side, 37 °C; within 2 h, at the three time points; normal model and IL-1β-induced inflammation model; three replicates; read-out: apparent permeability coefficient (Papp)
Description: as §1

Papp A→B [1] [nm/s] | Molecule | fluorescein sodium transport permeability (Caco-2 cell monolayer; Caco-2 monolayer after 21 days, normal mode) [μg/h·cm^2] | fluorescein sodium transport permeability (Caco-2 cell monolayer; Caco-2 monolayer, inflammatory mode (IL-1β 10 ng/mL added on the 21st day, removed after 2 days)) [μg/h·cm^2]
 | O=C([O-])c1ccccc1-c1c2ccc(=O)cc-2oc2cc([O-])ccc12.[Na+].[Na+] [fluorescein sodium, reference compound] | 1.19 | 1.71
> 20 | LIVTQTMKGLDIQK [Peptide A1] |  | 
> 20 | MAASDISLLDAQ [Peptide A2] |  | 
> 20 | RVYVEELKPTPEGDLEILLQK [Peptide A3] |  | 
